Where “and” joins values, the source holds several entries; their conditions need not be identical. Equal values may be shown once. Read-outs that look alike come from different tables or passages of the source.
Columns and labels:
Assay type in all cases: cell-based
EP4 S319A = biological target: T1, EP4 S319A (Homo sapiens, UniProt P35408, S319A); assay: GloSensor cAMP assay, antagonism of PGE2-induced cAMP; details: TG6-129, S319A, single experiments 1st-3rd
T1 construct: The full-length EP2 or EP4 was cloned into the pcDNA3.1 vector (Invitrogen), incorporating an N-terminal FLAG tag; expressed in transfected cells; host or cells: AD293
T1 sequence (P35408 whole entry S319A): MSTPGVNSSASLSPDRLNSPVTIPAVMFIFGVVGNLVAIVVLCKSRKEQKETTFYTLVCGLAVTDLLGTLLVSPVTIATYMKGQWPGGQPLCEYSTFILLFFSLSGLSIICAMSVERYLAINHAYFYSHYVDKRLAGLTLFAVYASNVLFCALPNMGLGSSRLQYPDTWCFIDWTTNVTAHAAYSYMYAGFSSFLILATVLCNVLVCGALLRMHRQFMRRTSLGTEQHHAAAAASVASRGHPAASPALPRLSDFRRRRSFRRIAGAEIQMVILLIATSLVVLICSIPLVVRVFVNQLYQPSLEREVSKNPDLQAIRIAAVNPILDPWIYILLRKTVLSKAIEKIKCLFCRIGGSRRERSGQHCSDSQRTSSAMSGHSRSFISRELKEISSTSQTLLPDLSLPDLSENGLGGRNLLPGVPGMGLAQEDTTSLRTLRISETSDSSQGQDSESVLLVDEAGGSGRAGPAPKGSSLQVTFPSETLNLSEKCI

EP4 V320A = biological target: T2, EP4 V320A (Homo sapiens, UniProt P35408, V320A); assay: as above; details: for cAMP activity (∆pIC50 from EP4 WT): TG6-129, V320A
T2 construct: The full-length EP2 or EP4 was cloned into the pcDNA3.1 vector (Invitrogen), incorporating an N-terminal FLAG tag; expressed in transfected cells; host or cells: AD293
T2 sequence (P35408 whole entry V320A): as the sequence (P35408 whole entry S319A) above, with A319S, V320A counted along it

EP4 V72A = biological target: T3, EP4 V72A (Homo sapiens, UniProt P35408, V72A); assay: as above
T3 construct: The full-length EP2 or EP4 was cloned into the pcDNA3.1 vector; FLAG (N); expressed in transfected cells; host or cells: AD293 cells
T3 sequence (P35408 whole entry V72A): as the sequence (P35408 whole entry S319A) above, with V72A, A319S counted along it

[1] = biological target: T4, constitutively active EP4 V320A (Homo sapiens, UniProt P35408, V320A); assay: GloSensor cAMP assay, inhibition of constitutive activity
T4 construct: The full-length EP2 or EP4 was cloned into the pcDNA3.1 vector (Invitrogen), incorporating an N-terminal FLAG tag; expressed in transfected cells; host or cells: AD293
T4 sequence (P35408 whole entry V320A): as the sequence (P35408 whole entry S319A) above, with A319S, V320A counted along it

EP2-I85V = biological target: T5, EP2-I85V (Homo sapiens, UniProt P43116, I85V); assay: GloSensor cAMP assay, antagonism of PGE2-induced cAMP, chimeric studies; details: single experiments 1st-3rd
T5 construct: The full-length EP2 or EP4 was cloned into the pcDNA3.1 vector; FLAG (N); expressed in transfected cells; host or cells: AD293 cells
T5 sequence (P43116 whole entry I85V): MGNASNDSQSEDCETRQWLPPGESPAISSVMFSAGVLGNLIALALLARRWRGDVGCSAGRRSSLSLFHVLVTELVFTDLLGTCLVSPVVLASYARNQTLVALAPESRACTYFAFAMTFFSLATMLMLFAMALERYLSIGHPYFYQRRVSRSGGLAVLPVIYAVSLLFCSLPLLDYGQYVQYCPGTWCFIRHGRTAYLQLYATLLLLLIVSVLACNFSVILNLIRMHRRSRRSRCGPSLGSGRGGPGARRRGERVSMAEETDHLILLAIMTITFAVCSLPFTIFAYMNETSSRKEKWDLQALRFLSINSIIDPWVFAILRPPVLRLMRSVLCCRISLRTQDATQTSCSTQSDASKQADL
Procedure: (§1) The full-length EP2 or EP4 was cloned into the pcDNA3.1 vector (Invitrogen), incorporating an N-terminal FLAG tag. AD293 cells were seeded in six-well plates containing DMEM supplemented with 10% dialyzed FBS 1 day prior to transfection. Following overnight growth, cells were transfected with a 1:1 ratio of receptor construct and GloSensor22F cAMP biosensor (Promega) plasmids.
(§2) Twenty-four hours post-transfection, the cells were transferred to CO2-independent media containing 2% GloSensor cAMP Reagent (Promega) and distributed into 384-well assay plates at a density of 4000 cells per well in 10 μL. […] The plates were then incubated at 37 °C for an additional hour before luminescence measurements were taken using an EnVision plate reader.
(§3) Data analysis was performed using GraphPad Prism software v8.0.1. A nonlinear regression analysis, employing a sigmoidal dose–response model, was conducted to determine the Emax values and half-maximum inhibitory concentrations (IC50) for each compound tested.

EP2-L301I = biological target: T6, EP2-L301I (Homo sapiens, UniProt P43116, L301I); assay: as above; details: single experiments 1st-3rd
T6 construct: The full-length EP2 or EP4 was cloned into the pcDNA3.1 vector; FLAG (N); expressed in transfected cells; host or cells: AD293 cells
T6 sequence (P43116 whole entry L301I): as the sequence (P43116 whole entry I85V) above, with V85I, L301I counted along it
Procedure: as §1, §2, §3

EP2-M116L = biological target: T7, EP2-M116L (Homo sapiens, UniProt P43116, M116L); assay: as above; details: single experiments 1st-3rd
T7 construct: The full-length EP2 or EP4 was cloned into the pcDNA3.1 vector; FLAG (N); expressed in transfected cells; host or cells: AD293 cells
T7 sequence (P43116 whole entry M116L): as the sequence (P43116 whole entry I85V) above, with V85I, M116L counted along it
Procedure: as §1, §2, §3

[2] = 1 h, TG6-129 log([M]) -4.70, read-out: % cAMP activity (normalized to WT)
[3] = 1 h, TG6-129 log([M]) -5.40, read-out: % cAMP activity (normalized to WT)
[4] = 1 h, TG6-129 log([M]) -6.10, read-out: % cAMP activity (normalized to WT)
[5] = 1 h, TG6-129 log([M]) -6.80, read-out: % cAMP activity (normalized to WT)
[6] = 1 h, TG6-129 log([M]) -7.49, read-out: % cAMP activity (normalized to WT)
[7] = 1 h, TG6-129 log([M]) -8.19, read-out: % cAMP activity (normalized to WT)
[8] = 1 h, TG6-129 log([M]) -8.89, read-out: % cAMP activity (normalized to WT)
[9] = 1 h, ligand log([M]) -6, Fig. S7B, read-out: % cAMP activity (normalized to WT)
[10] = 1 h, ligand log([M]) -10, Fig. S7B, read-out: % cAMP activity (normalized to WT)
[11] = 1 h, ligand log([M]) -11, Fig. S7B, read-out: % cAMP activity (normalized to WT)
[12] = 1 h, ligand log([M]) -5, Fig. S7B, read-out: % cAMP activity (normalized to WT)
[13] = 1 h, ligand log([M]) -12, Fig. S7B, read-out: % cAMP activity (normalized to WT)

cAMP activity (∆pIC50 from EP4 WT) (EP4 S319A): -0.429 and -0.317 and -0.151
IC50 (EP4 V320A): 13.5 µM
remaining activity at […] (EP4 V320A; [2]): 26.1%
remaining activity at […] (EP4 V320A; [3]): 66.6%
remaining activity at […] (EP4 V320A; [4]): 66.9%
remaining activity at 0.1585 µM (EP4 V320A; [5]): 68%
remaining activity at 0.03236 µM (EP4 V320A; [6]): 66.5%
remaining activity at 0.006457 µM (EP4 V320A; [7]): 70.4%
remaining activity at 0.001288 µM (EP4 V320A; [8]): 68.8%
ΔpIC50 (EP4 V320A; PGE2 0.5 nM, pIC50 mutant - pIC50 WT, mean): -0.11 ± 0.05
cAMP activity (∆pIC50 from EP4 WT) (EP4 V320A; Mean): -0.111
cAMP activity (∆pIC50 from EP4 WT) (EP4 V320A; single experiments 1st-3rd): -0.105 and -0.202 and -0.027
IC50 (EP4 V72A): 18.2 µM
remaining activity at 100 µM (EP4 V72A; 1 h, TG6-129 log([M]) -4.00, read-out: % cAMP activity (normalized to WT)): 12.5%
remaining activity at […] (EP4 V72A; [2]): 22.1%
remaining activity at […] (EP4 V72A; [3]): 49.5%
remaining activity at […] (EP4 V72A; [4]): 51.9%
remaining activity at 0.1585 µM (EP4 V72A; [5]): 46%
remaining activity at 0.03236 µM (EP4 V72A; [6]): 55.5%
remaining activity at 0.006457 µM (EP4 V72A; [7]): 65.3%
remaining activity at 0.001288 µM (EP4 V72A; [8]): 49%
cAMP activity (∆pIC50 from EP4 WT) (EP4 V72A; TG6-129, V72A, Mean): -0.291
IC50 [1]: 6.76 µM
remaining activity at 100 µM ([1]; 1 h, TG6-129 log([M]) -4.00, EP4-V320A, read-out: % cAMP activity (normalized to WT)): 8.24%
remaining activity at 20 µM ([1]; 1 h, TG6-129 log([M]) -4.70, EP4-V320A, read-out: % cAMP activity (normalized to WT)): 16%
remaining activity at […] ([1]; 1 h, TG6-129 log([M]) -5.40, EP4-V320A, read-out: % cAMP activity (normalized to WT)): 41.7%
remaining activity at […] ([1]; 1 h, TG6-129 log([M]) -6.10, EP4-V320A, read-out: % cAMP activity (normalized to WT)): 57.4%
remaining activity at […] ([1]; 1 h, TG6-129 log([M]) -6.80, EP4-V320A, read-out: % cAMP activity (normalized to WT)): 59.5%
remaining activity at 0.0324 µM ([1]; 1 h, TG6-129 log([M]) -7.49, EP4-V320A, read-out: % cAMP activity (normalized to WT)): 49.7%
remaining activity at 0.00646 µM ([1]; 1 h, TG6-129 log([M]) -8.19, EP4-V320A, read-out: % cAMP activity (normalized to WT)): 54.3%
remaining activity at 0.00129 µM ([1]; 1 h, TG6-129 log([M]) -8.89, EP4-V320A, read-out: % cAMP activity (normalized to WT)): 60.2%
TG6-129 cAMP activity (∆pIC50 from EP4 WT), Mean ([1]; V320A, Mean): -0.014
TG6-129 cAMP activity (∆pIC50 from EP4 WT) ([1]; V320A, single experiments 1st-3rd): 0.016 and -0.105 and 0.048
ΔpIC50 ([1]; no PGE2, pIC50 mutant - pIC50 WT, mean): -0.01 ± 0.04
remaining activity at 1 µM (EP2-I85V; [9]): 12.2%
remaining activity at 0.0001 µM (EP2-I85V; [10]): 102%
remaining activity at 10 pM (EP2-I85V; [11]): 108%
cAMP activity (∆pIC50 from EP2 WT) (EP2-I85V; Appendix Fig. S7A): -0.555 and -0.639 and -0.556
remaining activity at 10 µM (EP2-L301I; [12]): 16.7%
remaining activity at 1 µM (EP2-L301I; [9]): 17.9%
remaining activity at 0.1 µM (EP2-L301I; 1 h, ligand log([M]) -7, Fig. S7B, read-out: % cAMP activity (normalized to WT)): 74.8%
remaining activity at 0.0001 µM (EP2-L301I; [10]): 111%
remaining activity at 10 pM (EP2-L301I; [11]): 123%
remaining activity at 1 pM (EP2-L301I; [13]): 120%
cAMP activity (∆pIC50 from EP2 WT) (EP2-L301I; Appendix Fig. S7A): -0.046 and -0.334 and -0.171
remaining activity at 10 µM (EP2-M116L; [12]): 12.1%
remaining activity at 0.0001 µM (EP2-M116L; [10]): 107%
remaining activity at 10 pM (EP2-M116L; [11]): 124%
remaining activity at 1 pM (EP2-M116L; [13]): 116%
cAMP activity (∆pIC50 from EP2 WT) (EP2-M116L; Appendix Fig. S7A): -0.454 and -0.463 and -0.341
SMILES: CCc1nnc(NS(=O)(=O)c2ccc(NC(=S)NC(=O)/C=C/c3ccc(F)cc3)cc2)s1 [TG6-129]

Source: publication PMC12669672, “Structural insights into selective and dual antagonism of EP2 and EP4 prostaglandin receptors” (The EMBO Journal, 2025)
